Like-named read-outs stand apart in the source and are kept apart here.
Tests used:
Type in all cases: cell-based
[1] = test system: MTX-resistant mutant cells, CEM-MTX; experiment: MTT cytotoxicity with and without Leucovorin, CEM-MTX cells (Example 6); conditions: Homo sapiens, 72 hours
Protocol: (§1) Leucovorin is a reduced folate, used in chemotherapy with high doses of methotrexate for ‘rescue’ of host from toxicity.
(§2) Wild type human leukemia CEM cells or the MTX-resistant mutant cells, CEM-MTX, were plated into 96 well plates containing RPMI, 10% FCS at a concentration of 5×10^4 cells/ml. […] Leucovorin, at a final concentration of 10 μM, was added to some of the plates as indicated. The plates were incubated for 72 hours (37° C., 5% CO2) before being assayed for viability using the colorimetric MTT assay (Mosmann (1983) J. Immunol Methods 65: 55-63).

[2] = test system: T47D; experiment: MTT cytotoxicity on tumor cell lines, T47D (Example 8); conditions: Mammary cancer (human), 72 hours
Protocol: (§3) Cell viability was analyzed after 72 hours incubation (37° C., 5% CO2) using the colorimetric MTT assay (Mosmann (1983) J. Immunol Methods 65: 55-63).

[3] = test system: A431; experiment: MTT cytotoxicity on tumor cell lines, A431 (Example 8); conditions: A-431, A431, Epidermoid carcinoma (human), 72 hours
Protocol: as §3

[4] = test system: Wild type human leukemia CEM cells; experiment: MTT cytotoxicity with and without Leucovorin, CEM cells (Example 6); conditions: CCRF-CEM, 72 hours
Protocol: as §1, §2

[5] = 10 μM Leucovorin, read-out: EC50, nMol + 10 μM Leucovorin
[6] = read-out: EC50, nMol No Leucovorin

## CN(Cc1cnc2nc(N)nc(N)c2n1)c1ccc(C(=O)N[C@@H](CCC(=O)O)C(=O)O)cc1 [MTX, Methotrexate]
[1]; [5]
  EC50: 20 ± 12.8 µM
[1]; [6]
  EC50: 2.54 ± 0.224 µM
[2]
  EC50: 50 µM
[3]
  EC50: 0.85 µM
[4]; [5]
  EC50: 0.91 ± 0.378 µM
[4]; [6]
  EC50: 0.023 ± 0.013 µM

Source: patent US6774121B1, “Phospholipid prodrugs of anti-proliferative drugs” (D-Pharm, Ltd., priority 1999, dated 2004)
